From paper PMC12162873, “Modulating phosphatase DUSP22 with BML-260 ameliorates skeletal muscle wasting via Akt independent JNK-FOXO3a repression” (EMBO Molecular Medicine, 2025)
Values joined by “and” are separate entries in the source; they are usually repeats but may differ in a detail not shown here. Equal values may be shown once.

Tests used:
[1] = tested on: VH1-related (VHR) phosphatase; design: method as in Cutshall et al, 2005; settings: ref Cutshall et al, 2005; cited from earlier work
C2C12 myotubes = assay: Real-time qPCR of gene expression in C2C12 myotubes; format: cell-based, mouse; settings: for atrogin-1 and MuRF-1 expression, qPCR: 10 μM Dex 24 h, 12.5 μM BML-260; for DUSP22 expression, qPCR, Average / MURF-1 expression, qPCR, Average / atrogin-1 (ATRO) expression, qPCR, Average: Vehicle average = 1, n = 5; for DUSP22 expression, qPCR / MURF-1 expression, qPCR / atrogin-1 (ATRO) expression, qPCR: Vehicle average = 1, replicates
Protocol: (§1) C2C12 murine skeletal muscle myoblasts were purchased from Koram Biotech Corp. (Seoul, Republic of Korea). Prior to experiments, mycoplasma contamination was eliminated using the MycoXpert Mycoplasma Removal Reagent (MYX-B, CAPRICORN) following the manufacturer’s protocol. To ensure complete removal, all cells were passaged three times after treatment before being used in subsequent experiments. No STR profiling was recently undertaken. Myoblasts were cultured in growth media (GM), containing Dulbecco’s modified Eagle’s medium (DMEM), 10% fetal bovine serum, and 1% penicillin and streptomycin (PenStrep). C2C12 myoblasts were differentiated into myotubes at more than 80% confluence by culture in differentiation media (DM), containing DMEM supplemented with 2% horse serum and PenStrep, for 96 h. To induce atrophy, the myotubes were treated with DM plus 10 μM Dex for 24 h. BML-260 and SP600125 were purchased from Santa Cruz Biotechnology, TX, USA (cat. no. sc-223822 and sc-200635).
The StepOnePlus Real Time PCR System (Applied Biosystems, UK) was used to measure the mRNA level of the genes of interest. An AccuPower RT PreMix (Bioneer, Republic of Korea) was used to synthesize the cDNA from total RNA. The real-time PCR (qPCR) was carried out according to the manufacturer’s instructions, and the previously published protocol (Lee et al, [2020]). Details of the primers used in this study are shown in Appendix Tables S1 and S2.
(§2) Gene knockdown was carried out following the manufacturer’s protocol using a 6-well culture plate format (Thermo Fischer Scientific, Waltham, USA). Lipofectamine 3000 was used for the transfection step (Thermo Fischer Scientific, Waltham, USA). siRNA transfection was performed on day 3 of myoblast differentiation into myotubes. C2C12 myotubes and primary human myotubes were transfected with 75 pmol siRNA duplex. Details of the siRNAs used in this study are shown in Appendix Table S3.

C57BL/6J mice = assay: Dex treatment mouse model of skeletal muscle atrophy, BML-260 treatment; format: in vivo; settings: for mean body weight: 15 mg/kg Dex, 5 mg/kg BML-260, IP daily
Protocol: The Dex model of muscle atrophy was based on the previously published protocol (Kim et al, [2022]). In brief, 12-week-old male C57BL/6J mice were treated as follows: 1) Vehicle (DMSO in PBS pH 7.4 with 5% Tween 80) alone, 2) 15 mg/kg Dex dissolved in vehicle, 3) 15 mg/kg Dex and 5 mg/kg BML-260 (n = 5 per group). Mice were treated daily by intraperitoneal (IP) injection for 14 d and then assessed for muscle condition. The 5 mg/kg in vivo dose was selected based on a previous study that carried out bilateral injection of BML-260 into the fat pads of male 8-week-old C57BL/6J mice (Feng et al, [2019]).
Grip strength was measured using the BIO-GS3 device (Bioseb, FL, USA). Mice were placed onto the grid with all four paws attached and gently pulled backwards to measure the grip strength until the grid was released. The maximum grip value, used to represent muscle force, was calculated using 3 trials with an interval of 30 s.
Muscle fatigue was measured the previously described protocol (Chiu et al, [2018]), with two different models using the Rotarod. One was the constant model and the other was the accelerating model that is inherent in the rotarod device. In brief, the mice were accommodated to training before the commencement of the fatigue task using an accelerating rotarod (Ugo Basile, Italy). The mice were trained at a constant speed of 13 rpm for 15 min. After a recovery period of 15 min, the mice were placed on the rotarod adjusted to accelerate from 13 to 25 rpm in 3 min for 15 min. 24 h later, the muscle fatigue test was carried out with speeds ramping from 13 to 25 rpm in 3 min, and maintained at 25 rpm for a 30 min interval. Latency to fall off the rotarod was measured for each mouse. A fatigued mouse was classified as falling off 4 times within a 1 min period, which also terminated the test.
Mice were anesthetized using ketamine (22 mg/kg; Yuhan, Republic of Korea) and xylazine (10 mg/kg; Bayer, Republic of Korea) in saline by IP injection. The quadriceps, gastrocnemius, soleus and TA muscles were then dissected and weighed. For histological analysis, the muscles were fixed by overnight incubation with 4% paraformaldehyde in PBS pH 7.4 at 4 °C. Paraffin sectioning and H&E staining were provided by the Animal Housing Facility, Gwangju Institute of Science and Technology, Republic of Korea (5 µm muscle sections using a Thermo Scientific HistoStar (Thermofisher). H&E staining was carried out with a kit (Merck, Germany)). For immunohistochemistry, TA muscle sections were permeabilized for 15 min (PBS with 0.5% Triton X-100), blocked for 1 h (5% BSA) and incubated with the primary antibody overnight at 4 °C (a list of primary and secondary antibodies used in this study are provided in Appendix Tables S4 and S5, respectively). After washing with PBS 3 times for 5 min, the sections were incubated with the secondary antibody at RT for 1 h. The nuclei were counterstained with DAPI in ProLong™ Gold Antifade Mountant (Invitrogen, P36935). Digital images were acquired with Leica DM 2500 (Leica Microsystems). Cross sectional area (CSA) and fiber size distribution was measured using the NIH imaging software Image J 64. To CSA and size distribution of different fiber types was calculated in 4 muscle section as follows: type 2 A: 30–40 fibers measured; type 2B: at least 100 fibers measured; type 2X: 30–40 fibers measured.

C2C12 murine myotubes = assay: Dex-induced C2C12 myotube atrophy: myotube diameter, fusion and differentiation indexes; format: cell-based, mouse; settings: 10 μM Dex 24 h, 12.5 μM BML-260
Protocol: as §1
Fast myosin heavy chain 2 (MYH2) immunocytochemistry was used to visualize murine myotubes and measure myotube diameter, following the previously published protocol (Chen et al, [2016]). After mounting, fluorescence images were captured in 5 different regions using a DMI 3000 B microscope (Leica, Germany), and analyzed using the NIH imaging software Image J 64. 100 myotubes containing at least three nuclei were measured in each experimental group. Myotubes were primarily examined in the central area of each well, as opposed to randomly selected fields. The mid-point of the myotube was used to measure the diameter. For nuclear counts, we chose myotubes containing three or more nuclei. The observer was aware of the treatment conditions.
To assess myoblast fusion into multinucleate myotubes, nuclei number within fast myosin (MYH2)-positive cells were measured using the NIH imaging software Image J 64. The differentiation index was calculated as the percentage of nuclei in fast myosin (MYH2)-positive cells (nuclei in myotubes/total nuclei). Myotubes were classified as MYH-positive cells containing at least 4 nuclei. Myotubes were measured in groups of at least 100, with at least 7500 nuclei measured in each group.
as §2

[2] = dexamethasone-treated C2C12 myotubes
[3] = dexamethasone-treated C2C12 myotubes, listed as BML
[4] = 15 mg/kg Dex and 5 mg/kg BML-260, IP daily 14 d
[5] = C2C12 myotubes treated with Dex

For O=C(O)c1ccc(N2C(=O)C(=Cc3ccccc3)SC2=S)cc1 (stereo in doubt) [BML-260], the “inhibitory effect against VHR phosphatase” value [1] is given as “no inhibitory effect”, the “atrogin-1 and MuRF-1 expression, qPCR” value (C2C12 myotubes) is given as “downregulated” and the “additional effect on Dex-induced atrogene expression in the presence of DUSP22 gene knockdown” value (C2C12 myotubes; Dex-treated C2C12 myotubes) is given as “no significant additional effect”. The “DUSP22 expression, qPCR, Average” value (C2C12 myotubes; [2]) was 1.419, the “MURF-1 expression, qPCR, Average” value (C2C12 myotubes; [2]) was 2.125 and the “atrogin-1 (ATRO) expression, qPCR, Average” value (C2C12 myotubes; [2]) was 2.99. The “DUSP22 expression, qPCR” value (C2C12 myotubes; [3]) was 1.3832 and 1.906 and 1.483 and 1.176 and 1.145, the “MURF-1 expression, qPCR” value (C2C12 myotubes; [3]) was 2.278 and 2.851 and 2.228 and 1.487 and 1.782 and the “atrogin-1 (ATRO) expression, qPCR” value (C2C12 myotubes; [3]) was 3.37 and 3.403 and 3.232 and 2.06 and 2.886. For the same compound, the TA muscle mass (C57BL/6J mice; [4]) was “increased”, the grip strength (C57BL/6J mice; [4]) was “increased the mean grip strength value, but it did not achieve statistical significance” and the myofiber area distribution (C57BL/6J mice; [4]) was “shifted the myofiber area distribution towards larger sized fibers”. For the same compound, the “rotarod muscle performance, acceleration and constant models” value (C57BL/6J mice; [4]) was “significantly recovered muscle performance”, the “upregulation of atrogin-1, MuRF-1 and DUSP22 in TA muscle, western blot” value (C57BL/6J mice; [4]) was “inhibited” and the “myofiber CSA” value (C57BL/6J mice; 15 mg/kg Dex and 5 mg/kg BML-260, IP daily 14 d, TA muscle per text) was “significantly increased”. The mean body weight (C57BL/6J mice) was “recovered”, the “myotube atrophy (myotube diameter)” value (C2C12 murine myotubes) was “prevented myotube atrophy” and the “myotube fusion and differentiation indexes” value (C2C12 murine myotubes) was “recovered”. The “proportion of larger-sized myotubes” value (C2C12 murine myotubes) was “maintained the proportion of larger-sized myotubes”.
With C[C@@H]1C[C@H]2[C@@H]3CCC4=CC(=O)C=C[C@]4(C)[C@@]3(F)[C@@H](O)C[C@]2(C)[C@@]1(O)C(=O)CO [Dex, dexamethasone] the “atrogin-1 and MuRF-1 expression, qPCR” value (C2C12 myotubes) was “upregulated”, the “DUSP22 expression in myotubes undergoing Dex-induced atrophy, RNA Seq and qPCR” value (C2C12 myotubes; C2C12 myotubes) was “upregulated” and the “DUSP22 expression, qPCR, Average” value (C2C12 myotubes; [5]) was 1.867. For the same compound, the “DUSP22 expression, qPCR” value (C2C12 myotubes; [5]) was 1.751 and 1.762 and 2.076 and 2.045 and 1.699, the “DUSP22 expression, qPCR, Average” value (C2C12 myotubes; [2]) was 1.628 and the “MURF-1 expression, qPCR, Average” value (C2C12 myotubes; [2]) was 2.64. The “atrogin-1 (ATRO) expression, qPCR, Average” value (C2C12 myotubes; [2]) was 4.291, the “DUSP22 expression, qPCR” value (C2C12 myotubes; [2]) was 2.068 and 1.836 and 1.276 and 1.511 and 1.449 and the “MURF-1 expression, qPCR” value (C2C12 myotubes; [2]) was 3.398 and 2.859 and 1.96 and 2.287 and 2.697. The “atrogin-1 (ATRO) expression, qPCR” value (C2C12 myotubes; [2]) was 4.546 and 3.961 and 4.048 and 4.199 and 4.699, the mean body weight (C57BL/6J mice) was “significantly reduced” and the “DUSP22 expression, qPCR” value (C57BL/6J mice; TA muscle of C57BL/6 mice treated with Dex, Vehicle average = 1, individual animals) was 2.47 and 1.789 and 1.328 and 1.032. For the same compound, the “myotube atrophy (myotube diameter)” value (C2C12 murine myotubes) was “underwent atrophy”.
